Results: publication PMC6115017, “High-content imaging assay to evaluate Toxoplasma gondii infection and proliferation: A multiparametric assay to screen new compounds” (PLoS ONE, 2018)
Like-named read-outs stand apart in the source and are kept apart here.

Assays:
[1] = tested on: T. gondii proliferation (RH-YFP2 parasites in HFF); assay: High Content Imaging (HCI) assay of T. gondii proliferation in HFF; details: for inhibition at 10 µM / IC50 / inhibition at 20 µM: Toxoplasma gondii; for SI selectivity index: CV50/IC50: CV50 (HFF)/IC50 (T. gondii); for Parasite proliferation inhibition (PPI): tested at 10 μM, HFF infected with T. gondii, normalised to DMSO and 20 μM pyrimethamine
Method: The parasites were collected just after host cell lysis, centrifuged at 800 g for 5 min, suspended in D10 medium, and counted.
A pyrimethamine (Sigma-Aldrich) stock solution was prepared at 10 mM in DMSO and was used at the final concentration of at 20 μM as a positive control for anti-Toxoplasma activity. Forty-six molecules were tested to determine their anti-Toxoplasma activity. Each molecule was prepared as a 10 mM stock solution in DMSO and tested at 10 μM. The hits were then further tested at the dilutions 0.01 to 100 μM.
(§1) Cells were seeded at a density of 1.10^4 cells per well into 96-well plates, and allowed to grow for 48 h at 37°C and 5% CO2 to obtain sub-confluent HFF monolayers. Cells were then infected with 4.10^4 parasites per well. The plates were centrifuged for 1 min at 200 g and placed at 37°C, 5% CO2, for 2 h. After 3 washes in PBS, infected cells were incubated at 37°C, 5% CO2, for 30 hours with 200 μL of DMEM complete medium alone or supplemented with anti-Toxoplasma molecules, i.e. the reference drug pyrimethamine, or the tested molecules. These tested drugs were incubated at 10 μM in screening hit assays.
Imaging of 96-well plates was performed using a high content imaging system (Olympus ScanR). […] Twenty fields per well were imaged.
The acquired images were analyzed using the ScanR analysis software. This analysis aimed to identify the parasitophorous vacuoles (V), the parasites’ nuclei (P) and host cells’ nuclei (C).
A fixed threshold was set up (Fig 1C) and a watershed algorithm was applied to split apart two vacuoles that associated with one another (Fig 1C, white arrow). A binary mask was obtained (Fig 1D) and objects on the image border were excluded. Segmentation of the parasites’ nuclei (Fig 1E–1G, arrowhead) was performed with the Hoechst fluorescence pixels (Fig 1E). In order to properly separate parasites’ nuclei one from another, an important rolling ball background subtraction filter was applied (5 pixels). Both the brightness and the contrast of filtered images were adjusted manually. Parasites were selected with an edge segmentation algorithm with a minimum object size of 10 pixels and a maximum object size of 30 pixels (Fig 1F). The obtained binary image allowed a clear detection of the parasites (Fig 1G).
The vacuole mask was merged with that of the parasites to identify parasites inside their parasitophorous vacuole and to exclude extracellular parasites or host cell nuclei (Fig 1H).

[2] = tested on: Human foreskin fibroblasts (HFF) host cells; assay: Host cell viability in the HCI assay (host cell nuclei count); details: 0.037 to 81 μM, 30 h
Method: as §1
• the T. gondii infection rate (V/C), calculated as the ratio between the number of parasitophorous vacuoles per well (V) divided by the number of host cells per well (C); • the T. gondii proliferation index (P/V), calculated as the ratio between the number of parasites per well (P) divided by the number of parasitophorous vacuoles per well; • the intra-vacuolar distribution of parasites (percentage of parasitophorous vacuoles containing either 1, 2, 4, or 8 parasites); • the parasite proliferation inhibition (PPI), calculated with the following formula: PPI=(1−((P/V[mol]−P/V[Pyr])/(P/V[DMSO]−P/V[Pyr])))x100 where P/V[Pyr] was the average proliferation rate of Toxoplasma in the presence of 20 μM pyrimethamine, P/V[DMSO], the average proliferation rate of Toxoplasma in the presence of DMSO only and P/V[mol], the average proliferation rate of Toxoplasma in the presence of the tested molecule; • the cell viability (CV): (C [mol] / C[DMSO])x100, where C[mol] was the number of host cell nuclei per well containing the tested molecule and C[DMSO], the number of host cell nuclei per well containing the DMSO control.
A selectivity index activity (SI) was calculated as SI = CV50/IC50.

[3] = tested on: Toxoplasma gondii parasites in HFF; assay: Manual microscopic counting of T. gondii proliferation; details: 30 h, read-out: inhibition of parasite proliferation as determined by manual microscopic observations
Method: as §1
Parasitophorous vacuoles, parasites and host cells were manually counted on the set of images provided by the Olympus IX81 microscope. Three different experiments were performed.
After 30 h of parasite culture in HFF, the total numbers of parasitophorous vacuoles and parasites were counted in wells with or without 20 μM pyrimethamine from 3 different experiments. The 100% proliferation corresponds to the number of parasites per well without pyrimethamine.

[4] = tested on: RH-YFP2 parasites in HFF; assay: [3H]-uracil incorporation assay of T. gondii proliferation; assay type: cell-based; details: Toxoplasma gondii; 20 μM pyrimethamine, 30 h in HFF; 100% proliferation = without pyrimethamine; 3 experiments; read-out: inhibition of parasite proliferation as determined by [3H]-uracil incorporation assay
Method: The intracellular growth of RH-YFP2 parasites in HFF was monitored by selective incorporation of [^3H]-uracil, as previously described. […] After several washes to eliminate extracellular parasites, infected cells were cultured for 30 h with […] of [^3H]-uracil per well. Monolayers were washed 3 times in phosphate buffered saline (PBS), disrupted with 500 μL of lysis/scintillation solution (Optiphase Supermix, Perkin Elmer, France) and their radioactivity was measured by liquid scintillation counting using a Wallac MicroBeta TriLux (Perkin Elmer) calibrated for [^3H]-uracil. Two experimental replicates were performed in each of the 3 separate experiments.

[5] = 30 h, read-out: Parasite proliferation inhibition (PPI)
[6] = 30 h, read-out: IC50: concentration to inhibit 50% of T. gondii proliferation

O=C1/C(=C/c2ccc(Br)cc2)Oc2cc(O)cc(O)c21 [AU7]
inhibition at 10 µM [1, 5]: 0%

COc1cccc(OC)c1/C=C/C(=O)c1c(OC)cccc1OC [CH1]
inhibition at 10 µM [1, 5]: 0%

COc1cccc(OC)c1/C=C/C(=O)c1ccccc1 [CH4]
inhibition at 10 µM [1, 5]: 29%

COc1ccc(C(=O)/C=C/c2ccc(OC)c(OC)c2)c(O)c1 [CH5]
inhibition at 10 µM [1, 5]: 3%

COc1ccc(C(=O)/C=C/c2cc(OC)c(OC)c(OC)c2)c(O)c1 [CH9]
SI selectivity index: CV50/IC50 [1]: >12.3
IC50 [1, 6]: 6600 ± 1500 nM
inhibition at 10 µM [1, 5]: 93%
Parasite proliferation inhibition (PPI) ([1]; 30 h): high proliferation inhibition activity
CV50: concentration to inhibit the viability of 50% of host cells [2]: >81 µM

COc1cc(/C=C/C(=O)c2ccc(OC)cc2O)cc(OC)c1 [CH12]
inhibition at 10 µM [1, 5]: 73%

COc1ccc(-c2nnc(-c3ccccc3OC)o2)cc1 [DO3]
SI selectivity index: CV50/IC50 [1]: >3
IC50 [1, 6]: 27700 ± 6200 nM
inhibition at 10 µM [1, 5]: 81%
Parasite proliferation inhibition (PPI) ([1]; 30 h): high proliferation inhibition activity
CV50: concentration to inhibit the viability of 50% of host cells [2]: >81 µM

COc1ccc(-c2nnc(-c3ccc(OC)cc3)o2)cc1 [DO4]
inhibition at 10 µM [1, 5]: 0%

COc1ccccc1-c1nnc(-c2ccccc2)o1 [DO6]
inhibition at 10 µM [1, 5]: 0%

COc1ccc(-c2nnc(-c3ccccc3)o2)c(OC)c1 [DO8]
inhibition at 10 µM [1, 5]: 0%

c1ccc(-c2nnc(-c3ccccc3)o2)cc1 [DO9]
inhibition at 10 µM [1, 5]: 0%

Oc1ccc(-c2nnc(-c3ccccc3)o2)cc1 [DO10]
inhibition at 10 µM [1, 5]: 0%

Oc1ccc(-c2nnc(-c3ccccc3)o2)c(O)c1 [DO11]
inhibition at 10 µM [1, 5]: 0%

Oc1ccccc1-c1nnc(-c2ccccc2)o1 [DO12]
inhibition at 10 µM [1, 5]: 5%

Oc1ccc(-c2nnc(-c3ccc(O)cc3O)o2)cc1 [DO13]
inhibition at 10 µM [1, 5]: 0%

Oc1ccc(-c2nnc(-c3ccc(O)cc3)o2)cc1 [DO14]
inhibition at 10 µM [1, 5]: 0%

CCc1nc(N)nc(N)c1-c1ccc(Cl)cc1 [pyrimethamine, reference compound]
SI selectivity index: CV50/IC50 [1]: >202
IC50 ([1]; 24 h, read-out: IC50 of pyrimethamine, reproducibility): 600 nM
IC50 [1, 6]: 400 ± 30 nM
inhibition at 20 µM [1, 5]: 100%
inhibition at 20 µM ([1]; 30 h, read-out: inhibition of parasite proliferation as determined by HCI): 25.2%
IC50 ([1]; 72 h, read-out: IC50 of pyrimethamine, reproducibility): 440 nM
CV50: concentration to inhibit the viability of 50% of host cells [2]: >81 µM
inhibition at 20 µM [3]: 25%
inhibition at 20 µM [4]: 43.2%
